Experimental data taken from ChEMBL document CHEMBL1148938, “Quinolone alkaloids with nitric oxide production inhibitory activity from Orixa japonica” (2004).
Activity calls are given as the source filed them. The calls are words filed in the database; no cut-off is given here.

Assays:
RAW264.7 [1] = test: Inhibition of LPS/IFN-gamma-induced NO production in mouse RAW264.7 cells at 30 uM after 18 hrs; assay type: functional, cell-based
RAW264.7 [2] = test: Inhibition of LPS/IFN-gamma-induced NO production in mouse RAW264.7 cells at 10 uM after 18 hrs; assay type: functional; conditions: RAW264.7, 18 h
RAW264.7 [3] = test: Inhibition of LPS/IFN-gamma-induced NO production in mouse RAW264.7 cells at 50 uM after 18 hrs; assay type: functional; conditions: RAW264.7, 18 h

| SMILES | Activity (RAW264.7 [1]) | inhibition at 10 µM (RAW264.7 [2]) | inhibition at 50 µM (RAW264.7 [3]) |
| --- | --- | --- | --- |
| COc1nc2c3c(ccc2c(OC)c1CC(=O)C(C)C)OCO3 | inactive | – | – |
| COc1c(CC(=O)C(C)C)c(=O)n(C)c2c(OC)cccc12 [ORIXALONE A] | – | 47.3% | 54.8% |
| COc1c2ccoc2nc2c3c(ccc12)OCO3 | inactive | – | – |
| COc1nc2c3c(ccc2c(OC)c1C[C@H]1OC1(C)C)OCO3 | inactive | – | – |
